Legend:
[1] = molecular target: T1, Multidrug and toxin extrusion protein 1 (Homo sapiens, UniProt Q96FL8); assay: Substrate activity at MATE1 (unknown origin) expressed in HEK293 cells assessed as increase in uptake by HPLC-MS/MS analysis; assay type: cell-based
T1 sequence (Q96FL8 whole entry): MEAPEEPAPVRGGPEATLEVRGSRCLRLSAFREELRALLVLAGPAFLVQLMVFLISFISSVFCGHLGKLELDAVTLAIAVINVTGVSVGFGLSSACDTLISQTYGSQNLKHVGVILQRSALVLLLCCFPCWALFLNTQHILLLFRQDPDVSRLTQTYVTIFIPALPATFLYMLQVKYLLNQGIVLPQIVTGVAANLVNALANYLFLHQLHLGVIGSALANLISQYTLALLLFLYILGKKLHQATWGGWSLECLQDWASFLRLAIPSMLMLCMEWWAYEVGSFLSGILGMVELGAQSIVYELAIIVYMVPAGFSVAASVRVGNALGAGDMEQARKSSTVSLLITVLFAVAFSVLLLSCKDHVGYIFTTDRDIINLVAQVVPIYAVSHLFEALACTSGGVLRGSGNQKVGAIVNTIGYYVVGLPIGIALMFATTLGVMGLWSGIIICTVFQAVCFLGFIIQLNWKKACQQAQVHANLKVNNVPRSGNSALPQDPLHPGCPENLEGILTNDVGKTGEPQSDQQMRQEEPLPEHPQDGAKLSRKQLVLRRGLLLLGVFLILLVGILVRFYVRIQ

[2] = molecular target: T2, Multidrug and toxin extrusion protein 2 (Homo sapiens, UniProt Q86VL8); assay: Substrate activity at MATE2-K (unknown origin) expressed in HEK293 cells assessed as increase in uptake by HPLC-MS/MS analysis; assay type: cell-based
T2 sequence (Q86VL8 whole entry): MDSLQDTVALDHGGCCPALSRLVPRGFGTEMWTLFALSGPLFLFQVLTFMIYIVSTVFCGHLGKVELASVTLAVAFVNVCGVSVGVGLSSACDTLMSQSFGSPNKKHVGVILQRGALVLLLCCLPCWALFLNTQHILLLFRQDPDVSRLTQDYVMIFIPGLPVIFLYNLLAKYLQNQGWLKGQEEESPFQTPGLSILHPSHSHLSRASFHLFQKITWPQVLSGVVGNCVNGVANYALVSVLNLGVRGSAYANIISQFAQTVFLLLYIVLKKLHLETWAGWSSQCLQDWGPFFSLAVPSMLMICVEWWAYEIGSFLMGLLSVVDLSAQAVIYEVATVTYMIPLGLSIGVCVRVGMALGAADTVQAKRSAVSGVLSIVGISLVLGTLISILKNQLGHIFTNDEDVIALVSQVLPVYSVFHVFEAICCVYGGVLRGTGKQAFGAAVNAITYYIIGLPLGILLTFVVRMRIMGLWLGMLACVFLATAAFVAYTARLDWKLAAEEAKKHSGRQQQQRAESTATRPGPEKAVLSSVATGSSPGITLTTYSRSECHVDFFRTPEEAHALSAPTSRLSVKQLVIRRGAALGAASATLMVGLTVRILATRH

[3] = molecular target: T1, Multidrug and toxin extrusion protein 1; assay: Substrate activity at MATE1 (unknown origin) expressed in HEK293 cells assessed as Vmax (maximum transport velocity) by HPLC-MS/MS analysis; assay type: cell-based
[4] = molecular target: T1, Multidrug and toxin extrusion protein 1; assay: Substrate activity at MATE1 (unknown origin) expressed in HEK293 cells assessed as intrinsic clearance by measuring ratio of Vmax (maximum transport velocity) over Km measured per mg of protein by HPLC-MS/MS analysis; assay type: cell-based
[5] = molecular target: T2, Multidrug and toxin extrusion protein 2; assay: Substrate activity at MATE2-K (unknown origin) expressed in HEK293 cells assessed as Vmax (maximum transport velocity) by HPLC-MS/MS analysis; assay type: cell-based
[6] = molecular target: T2, Multidrug and toxin extrusion protein 2; assay: Substrate activity at MATE2-K (unknown origin) expressed in HEK293 cells assessed as intrinsic clearance by measuring ratio of Vmax (maximum transport velocity) over Km measured per mg of protein by HPLC-MS/MS analysis; assay type: cell-based
[7] = molecular target: T1, Multidrug and toxin extrusion protein 1; assay: Substrate activity at MATE1 (unknown origin) expressed in HEK293 cells assessed as ratio of uptake by the enantiomer with higher value to enantiomer with lower value at 2.5 uM measured after 1 min by HPLC-MS/MS analysis; assay type: cell-based; details: hek293, 1 min
[8] = molecular target: T2, Multidrug and toxin extrusion protein 2; assay: Substrate activity at MATE2-K (unknown origin) expressed in HEK293 cells assessed as ratio of uptake by the enantiomer with higher value to enantiomer with lower value at 2.5 uM measured after 1 min by HPLC-MS/MS analysis; assay type: cell-based; details: hek293, 1 min
[9] = molecular target: T3, MATE1 (Homo sapiens, UniProt Q96FL8); assay: in vitro
T3 sequence (Q96FL8 whole entry): T1 sequence (Q96FL8 whole entry)

[10] = molecular target: T4, MATE2-K (Homo sapiens, UniProt Q86VL8); assay: in vitro
T4 sequence (Q86VL8 whole entry): T2 sequence (Q86VL8 whole entry)

[11] = HEK293 cells expressing MATE2-K

SMILES | Vmax [3] [pmol/min] | CL [4] [µL/min] | CL [6] [µL/min] | Ratio [7] | Ratio [8] | other results
N=C(N)c1ccc(OCCCCCOc2ccc(C(=N)N)cc2)cc1 [PENTAMIDINE] |  |  |  |  |  | Activity [1]: Dose-dependent-effect; Activity [2]: Dose-dependent-effect
Nc1ccn([C@@H]2CS[C@H](CO)O2)c(=O)n1 [LAMIVUDINE] |  |  |  |  |  | Activity [1]: Dose-dependent-effect; Activity [2]: Dose-dependent-effect
NC[C@H](O)c1ccc(O)c(O)c1 [NOREPINEPHRINE] | 18720 | 10 | 0.59 |  |  | Vmax [5]: 673 pmol/min
CCN1CCCC1CNC(=O)c1cc(S(N)(=O)=O)ccc1OC (configuration not stated) [SULPIRIDE] | 851 | 53.2 | 44.9 |  |  | Vmax [5]: 1025 pmol/min
CNCCC(Oc1ccccc1C)c1ccccc1 (racemic) |  |  |  | 1 | > 1 | 
O=C(O[C@H]1C[N+]2(CCCOc3ccccc3)CCC1CC2)C(O)(c1cccs1)c1cccs1.[Br-] (mixture of isomers) [ACLIDINIUM BROMIDE] |  |  |  | > 1 | > 1 | 
Nc1ccn([C@H]2CC[C@@H](CO)O2)c(=O)n1 [ZALCITABINE] | 10171 | 6.53 |  |  |  | 
O=C(O)c1cn(C2CC2)c2cc(N3CCNCC3)c(F)cc2c1=O [CIPROFLOXACIN] |  |  |  |  |  | Activity [1]: Dose-dependent-effect; Activity [2]: Dose-dependent-effect
Cc1cc2nc3c(=O)[nH]c(=O)nc-3n(C[C@H](O)[C@H](O)[C@H](O)CO)c2cc1C [RIBOFLAVIN] |  |  |  |  |  | Activity [1]: Dose-dependent-effect; Activity [2]: Dose-dependent-effect
CC(CCc1ccc(O)cc1)NCCc1ccc(O)c(O)c1 (configuration not stated) [DOBUTAMINE] | 2586 | 29.2 | 5.71 |  |  | uptake ratio at 1 min, 2.5 µM ([9]; HEK293 cells expressing MATE1): > 2; uptake ratio at 1 min, 2.5 µM [10, 11]: > 2
C[N@+]1(CC2CC2)CC[C@]23c4c5ccc(O)c4O[C@H]2C(=O)CC[C@@]3(O)[C@H]1C5 [METHYLNALTREXONE] | 56 |  |  |  |  | 
CC(=O)OC(C)C[N+](C)(C)C (configuration not stated) [METHACHOLINE] | 17843 | 8.98 | 0.88 |  |  | Vmax [5]: 1240 pmol/min; uptake ratio at 1 min, 2.5 µM ([9]; hek293): > 2; uptake ratio at 1 min, 2.5 µM ([10]; hek293): > 2
CC(C)(C)NCC(O)c1ccc(O)c(CO)c1 (racemic) [ALBUTEROL] |  |  |  | > 1 | > 1 | uptake ratio at 1 min, 2.5 µM ([9]; HEK293 cells expressing MATE1): > 2; uptake ratio at 1 min, 2.5 µM [10, 11]: > 2
NCCc1ccc(O)c(O)c1 [DOPAMINE] | 10148 | 19.2 | 1.27 |  |  | uptake ratio at 1 min, 2.5 µM ([9]; hek293): > 2; uptake ratio at 1 min, 2.5 µM ([10]; hek293): > 2
NC1CONC1=O (racemic) |  |  |  | 1 | > 1 | 
COc1ccc(C(CN(C)C)C2(O)CCCCC2)cc1 (racemic) [VENLAFAXINE] |  |  |  | > 1 | > 1 | 
CNC[C@H](O)c1ccc(O)c(O)c1 [EPINEPHRINE] | 22773 | 21.1 | 1.97 |  |  | uptake ratio at 1 min, 2.5 µM ([9]; hek293): > 2; uptake ratio at 1 min, 2.5 µM ([10]; hek293): > 2
NCCc1ccc(O)cc1 [TYRAMINE] | 5948 | 43.6 | 2.71 |  |  | Vmax [5]: 2868 pmol/min; uptake ratio at 1 min, 2.5 µM ([9]; hek293): > 2; uptake ratio at 1 min, 2.5 µM ([10]; hek293): < 2
COc1ccccc1OCCNCC(O)COc1cccc2[nH]c3ccccc3c12 (racemic) [CARVEDILOL] |  |  |  | 1 | > 1 | 

SMILES | Vmax [3] [pmol/min] | CL [4] [µL/min] | CL [6] [µL/min] | Ratio [7] | Ratio [8] | other results
Cc1ncc(C[n+]2csc(CCO)c2C)c(N)n1 [THIAMINE ION] | 599 | 34.9 | 6.32 |  |  | Activity [1]: Dose-dependent-effect; Activity [2]: Dose-dependent-effect; uptake ratio at 1 min, 2.5 µM ([9]; hek293): > 2; uptake ratio at 1 min, 2.5 µM ([10]; hek293): > 2
Cc1ncc(CO)c(CO)c1O [PYRIDOXINE] | 10014 | 2.37 | 1.2 |  |  | uptake ratio at 1 min, 2.5 µM ([9]; hek293): > 2; uptake ratio at 1 min, 2.5 µM ([10]; hek293): < 2
CN(C)CCC=C1c2ccccc2COc2ccccc21 [DOXEPIN] |  |  |  | 1 | 1 | 
c1c2c(cc3c1OCO3)-c1cc3ccc4c(c3c[n+]1CC2)OCO4 [COPTISINE] | 2901 |  |  |  |  | Activity [1]: Dose-dependent-effect; Activity [2]: Dose-dependent-effect; uptake ratio at 1 min, 2.5 µM ([9]; HEK293 cells expressing MATE1): > 2; uptake ratio at 1 min, 2.5 µM [10, 11]: > 2
CN(C)CCc1c[nH]c2ccc(CC3COC(=O)N3)cc12 (racemic) | 2992 | 52.4 | 32.1 |  |  | Vmax [5]: 740 pmol/min
Cc1cccc(C)c1OCC(C)N (racemic) [MEXILETINE] |  |  |  | > 1 | > 1 | uptake ratio at 1 min, 2.5 µM ([9]; hek293): < 2; uptake ratio at 1 min, 2.5 µM ([10]; hek293): < 2
Cc1ncc(CO)c(CN)c1O [PYRIDOXAMINE] | 5442 | 3.23 | 0.64 |  |  | Vmax [5]: 989.5 pmol/min; uptake ratio at 1 min, 2.5 µM ([9]; hek293): > 2; uptake ratio at 1 min, 2.5 µM ([10]; hek293): < 2
CCN1CCCC1CNC(=O)c1cc(S(=O)(=O)CC)c(N)cc1OC (racemic) [AMISULPRIDE] | 238 | 22.4 | 17.8 | > 1 | > 1 | uptake ratio at 1 min, 2.5 µM ([9]; HEK293 cells expressing MATE1): > 2; uptake ratio at 1 min, 2.5 µM [10, 11]: > 2
CNCC(O)c1cccc(O)c1 (racemic) |  |  |  | > 1 | > 1 | 
CN(C)CCc1c[nH]c2ccc(C[C@H]3COC(=O)N3)cc12 [ZOLMITRIPTAN] | 2992 | 65.2 | 17.6 |  |  | 
[H]/N=C(/N)N/C(=N/[H])NCCc1ccccc1 [PHENFORMIN] | 8451 | 83.9 | 18.6 |  |  | Vmax [5]: 1361 pmol/min; uptake ratio at 1 min, 2.5 µM ([9]; hek293): > 2; uptake ratio at 1 min, 2.5 µM ([10]; hek293): > 2
C#CCN[C@@H]1CCc2ccccc21 [RASAGILINE] | 194 |  |  |  |  | 
CNC[C@H](O)c1cccc(O)c1 [PHENYLEPHRINE] | 11611 | 24.5 | 1.79 |  |  | Vmax [5]: 776 pmol/min; uptake ratio at 1 min, 2.5 µM ([9]; hek293): > 2; uptake ratio at 1 min, 2.5 µM ([10]; hek293): > 2
Nc1nc(=O)n([C@@H]2CS[C@H](CO)O2)cc1F [EMTRICITABINE] | 4523 | 4.56 | 3.02 |  |  | 
C[C@H]1N=C(N(C)C)N=C(N)N1 [IMEGLIMIN] | 6242 | 108 | 34.5 |  |  | uptake ratio at 1 min, 2.5 µM ([9]; HEK293 cells expressing MATE1): > 2; uptake ratio at 1 min, 2.5 µM [10, 11]: > 2
C#CCNC1CCc2ccccc21 (racemic) |  |  |  | > 1 | > 1 | 
CN(C)CCCC1(c2ccc(F)cc2)OCc2cc(C#N)ccc21 (racemic) [CITALOPRAM] |  |  |  | > 1 | > 1 | 
CNC(C)Cc1ccc(OC)cc1 (configuration not stated) |  |  |  |  |  | uptake ratio at 1 min, 2.5 µM ([9]; HEK293 cells expressing MATE1): < 2; uptake ratio at 1 min, 2.5 µM [10, 11]: < 2
